Reference: patent US20040086901A1, “Database for analyzing gene function and method of analyzing gene function by dspa” (priority 2000, published 2004)
Non-standard residues stand in square brackets, D forms with d. Residues, ends and D or L forms follow the SMILES beside them. Nle = CCCC[C@H](N)C(=O)O

Assays:
Type in all cases: cell-based, mouse
[1] = test system: NIH3T3 cells overexpressing Ha-ras; experiment: MTT cell viability, drug sensitivity of Ha-ras overexpressing cells vs parental line; details: Ha-ras high-expressing cells / parental cell line, 3 to 4 days
Procedure: (§1) With regard to the function-known genes, the genes shown in the left column of Table 2 were used. With regard to the drugs, those shown in Table 1 were dissolved in DMSO to an extent of 100-fold of the maximum concentration for the search of the drugs and used. With regard to the cells, incubated NIH3T3 or ras-NIH3T3 cells were used.
(§2) Full-length cDNA of each function-known genes was incorporated into an expression vector (pRc-CMV, etc.) and transfected into NIH3T3 cells by a common method. Transformed cells were isolated using the resistance to G-418 as an index and the expression of the transfected gene in each cell was investigated by Western blotting method to select a highly expressing line.
(§3) Cell viabilities were measured according to the following procedures.
(§4) 1) From the 2nd to the 11th rows of a 96-well plate were filled with DMEM (50 μl). The 12th row was filled with 100 μl of DMEM.
(§5) 2) The 1st row was filled with 98 μl of DMEM.
(§6) 3) Drugs (2 μl each) were added into the 1st row.
(§7) 4) Continuous double-dilution was conducted from the 1st to the 9th rows. Fifty μl were taken out from the 9th row and discarded. The plate was preserved in a CO2 incubator.
(§8) 5) Cells (each high-expressing cells and the parental cell line) were detached from the medium using a trypsin solution, suspended in 10% CS-DMEM and transferred to a test tube and cell numbers (cell/ml) were counted.
(§9) 6) The cells were diluted to a concentration of 1×10^5 cells/ml, and 50 μl of the cell suspension were added to the 1st to the 11th rows of the plate followed by gently stirring.
(§10) 7) The plate was transferred to the CO2 incubator and incubated for 3 to 4 days.
(§11) 8) MTT (5 mg/ml in PBS) (10 μl) was added to the 1st to the 12th rows of the plate and incubated in the CO2 incubator at 37° C. for 4 hours.
(§12) 9) A reaction stop solution (0.04N HCl in isopropanol) (150 μl) was added followed by mixing well and being allowed to stand at room temperature for about 2 hours.
(§13) 10) Coloration of formazan which was a metabolite of the MTT dye was measured using a microplate reader. The measurement wavelength was 574 nm and the reference wavelength was 655 nm. The 10th and the 11th rows of the plate were 100% controls and the 12th row was a 0% control.
(§14) As an index for the sensitivity of highly gene-expressing cells and the parental cell line to various drugs, each of the IC40 values thereof was specified and ratios of the IC40 values were calculated. […] After that, logarithmic values of ratios of IC40 values were calculated from each gene.

[2] = test system: NIH3T3 cells, TPA (PKC downreg); experiment: MTT cell viability, TPA (PKC downreg) cells vs parental line; details: 3 to 4 days
Procedure: as §1, §2, §3, §4, §5, §6, §7, §8, §9, §10, §11, §12, §13
(§15) As an index for the sensitivity of highly gene-expressing cells and the parental cell line to various drugs, each of the IC40 values thereof was specified and ratios of the IC40 values were calculated. FIG. 2 and FIG. 3 are the examples where ratios of IC40 values were calculated from a curve showing the dependency on the concentration of the chemical versus the viability. After that, logarithmic values of ratios of IC40 values were calculated from each gene.

[3] = test system: NIH3T3 cells overexpressing RhoA; experiment: MTT cell viability, RhoA overexpressing cells vs parental line; details: RhoA high-expressing cells / parental cell line, 3 to 4 days
Procedure: as §1, §2, §3, §4, §5, §6, §7, §8, §9, §10, §11, §12, §13, §15

[4] = test system: NIH3T3 cells overexpressing ERK-DN; experiment: MTT cell viability, ERK-DN overexpressing cells vs parental line; details: ERK-DN high-expressing cells / parental cell line, 3 to 4 days
Procedure: as §1, §2, §3, §4, §5, §6, §7, §8, §9, §10, §11, §12, §13, §14

[5] = test system: NIH3T3 cells overexpressing T.Tn; experiment: MTT cell viability, T.Tn overexpressing cells vs parental line; details: T.Tn high-expressing cells / parental cell line, 3 to 4 days
Procedure: as §1, §2, §3, §4, §5, §6, §7, §8, §9, §10, §11, §12, §13, §14

[6] = test system: NIH3T3 cells overexpressing HNF3b; experiment: MTT cell viability, HNF3b overexpressing cells vs parental line; details: HNF3b high-expressing cells / parental cell line, 3 to 4 days
Procedure: as §1, §2, §3, §4, §5, §6, §7, §8, §9, §10, §11, §12, §13, §14

[7] = test system: NIH3T3 cells overexpressing HSP9O; experiment: MTT cell viability, HSP9O overexpressing cells vs parental line; details: HSP9O high-expressing cells / parental cell line, 3 to 4 days
Procedure: as §1, §2, §3, §4, §5, §6, §7, §8, §9, §10, §11, §12, §13, §15

[8] = test system: NIH3T3 cells overexpressing caspase-3; experiment: MTT cell viability, caspase-3 overexpressing cells vs parental line; details: caspase-3 high-expressing cells / parental cell line, 3 to 4 days
Procedure: as §1, §2, §3, §4, §5, §6, §7, §8, §9, §10, §11, §12, §13, §14

[9] = test system: NIH3T3 cells overexpressing PDGF-R-Del; experiment: MTT cell viability, PDGF-R-Del overexpressing cells vs parental line; details: PDGF-R-Del high-expressing cells / parental cell line, 3 to 4 days
Procedure: as §1, §2, §3, §4, §5, §6, §7, §8, §9, §10, §11, §12, §13, §15

[10] = test system: NIH3T3 cells overexpressing PKCepsilon-KN; experiment: MTT cell viability, PKCepsilon-KN overexpressing cells vs parental line; details: 3 to 4 days
Procedure: as §1, §2, §3, §4, §5, §6, §7, §8, §9, §10, §11, §12, §13, §14

[11] = test system: NIH3T3 cells overexpressing HSP4O; experiment: MTT cell viability, HSP4O overexpressing cells vs parental line; details: HSP4O high-expressing cells / parental cell line, 3 to 4 days
Procedure: as §1, §2, §3, §4, §5, §6, §7, §8, §9, §10, §11, §12, §13, §15

[12] = test system: NIH3T3 cells overexpressing PKCalpha-KN; experiment: MTT cell viability, PKCalpha-KN overexpressing cells vs parental line; details: 3 to 4 days
Procedure: as §1, §2, §3, §4, §5, §6, §7, §8, §9, §10, §11, §12, §13, §14

[13] = test system: NIH3T3 cells overexpressing DAN; experiment: MTT cell viability, DAN overexpressing cells vs parental line; details: DAN high-expressing cells / parental cell line, 3 to 4 days
Procedure: as §1, §2, §3, §4, §5, §6, §7, §8, §9, §10, §11, §12, §13, §15

[14] = test system: NIH3T3 cells overexpressing N-ras; experiment: MTT cell viability, N-ras overexpressing cells vs parental line; details: N-ras high-expressing cells / parental cell line, 3 to 4 days
Procedure: as §1, §2, §3, §4, §5, §6, §7, §8, §9, §10, §11, §12, §13, §15

[15] = test system: NIH3T3 cells overexpressing JNK-DN; experiment: MTT cell viability, JNK-DN overexpressing cells vs parental line; details: JNK-DN high-expressing cells / parental cell line, 3 to 4 days
Procedure: as §1, §2, §3, §4, §5, §6, §7, §8, §9, §10, §11, §12, §13, §15

[16] = test system: NIH3T3 cells overexpressing m-calpain; experiment: MTT cell viability, m-calpain overexpressing cells vs parental line; details: m-calpain high-expressing cells / parental cell line, 3 to 4 days
Procedure: as §1, §2, §3, §4, §5, §6, §7, §8, §9, §10, §11, §12, §13, §14

[17] = test system: NIH3T3 cells overexpressing p16/INK4A; experiment: MTT cell viability, p16/INK4A overexpressing cells vs parental line; details: p16/INK4A high-expressing cells / parental cell line, 3 to 4 days
Procedure: as §1, §2, §3, §4, §5, §6, §7, §8, §9, §10, §11, §12, §13, §15

[18] = test system: NIH3T3 cells overexpressing cystatin alpha; experiment: MTT cell viability, cystatin alpha overexpressing cells vs parental line; details: cystatin alpha high-expressing cells / parental cell line, 3 to 4 days
Procedure: as §1, §2, §3, §4, §5, §6, §7, §8, §9, §10, §11, §12, §13, §15

[19] = test system: NIH3T3 cells overexpressing cAMP-PK-CS; experiment: MTT cell viability, cAMP-PK-CS overexpressing cells vs parental line; details: cAMP-PK-CS high-expressing cells / parental cell line, 3 to 4 days
Procedure: as §1, §2, §3, §4, §5, §6, §7, §8, §9, §10, §11, §12, §13, §14

[20] = PKCepsilon-KN (first of two lines) high-expressing cells / parental cell line
[21] = PKCepsilon-KN (second of two lines) high-expressing cells / parental cell line
[22] = PKCalpha-KN (first of two lines) high-expressing cells / parental cell line
[23] = PKCalpha-KN (second of two lines) high-expressing cells / parental cell line

Compound | logarithmic value of ratio of IC40 values [1] | logarithmic value of ratio of IC40 values [2] | logarithmic value of ratio of IC40 values [3] | logarithmic value of ratio of IC40 values [4] | logarithmic value of ratio of IC40 values [5] | logarithmic value of ratio of IC40 values [6] | logarithmic value of ratio of IC40 values [7] | logarithmic value of ratio of IC40 values [8] | logarithmic value of ratio of IC40 values [9] | logarithmic value of ratio of IC40 values [10, 20] | logarithmic value of ratio of IC40 values [10, 21] | logarithmic value of ratio of IC40 values [11] | logarithmic value of ratio of IC40 values [12, 23] | logarithmic value of ratio of IC40 values [13] | logarithmic value of ratio of IC40 values [14] | logarithmic value of ratio of IC40 values [15] | logarithmic value of ratio of IC40 values [16] | logarithmic value of ratio of IC40 values [17] | logarithmic value of ratio of IC40 values [18] | logarithmic value of ratio of IC40 values [19] | also measured
CCCC[C@@H](C=O)NC(=O)[C@H](CC(C)C)NC(=O)[C@H](CC(C)C)NC(C)=O [ALLN] (Ac-Leu-Leu-[Nle]-aldehyde) | 0.15 | −0.09 | 0.00 | 0.00 | 0.48 | 0.28 | 0.16 | −0.09 | 0.10 | 0.07 | 0.19 | 0.18 | −0.01 | 0.00 | 0.17 | −0.24 | 0.00 | 0.09 | 0.07 | 0.20 | logarithmic value of ratio of IC40 values [12, 22]: 0.11
CC(=O)OCOC(=O)CN(CC(=O)OCOC(C)=O)c1ccccc1OCCOc1ccccc1N(CC(=O)OCOC(C)=O)CC(=O)OCOC(C)=O [BAPTA-AM] | −0.20 | −0.03 | 0.00 | 0.12 | 0.11 | −0.07 | 0.60 | 0.60 | 0.31 | 0.00 | 0.00 | 0.05 | −0.42 | 0.70 | 0.00 | 0.06 | 0.00 | 0.20 | 0.34 | −0.10 | logarithmic value of ratio of IC40 values [12, 22]: 0.43
C[C@@H]1C[C@@H]([C@H](O)CC2CC(=O)NC(=O)C2)C(=O)[C@@H](C)C1 [CHX, cycloheximide] | −0.19 | 0.00 | 0.14 | 0.08 | 0.00 | 0.07 | 0.07 | 0.10 | 0.39 | 0.06 | 0.20 | 0.00 | 0.29 | 0.72 | −0.42 | 0.00 | 0.22 | 0.04 | 0.34 | 0.23 | logarithmic value of ratio of IC40 values [12, 22]: 0.30
O=CN/C=C/c1cc(O)ccc1O [Erbstatin, erbstatin] | 0.08 | 0.00 | 0.14 | 0.13 | 0.48 | −0.03 | 0.26 | −0.10 | 0.00 | −0.12 | 0.00 | 0.00 | 0.00 | 0.20 | −0.22 | 0.11 | 0.00 | 0.51 | 0.08 | 0.05 | 
C=C[C@@]1(C)CC(=O)[C@]2(O)[C@@]3(C)[C@@H](O)CCC(C)(C)[C@@H]3[C@H](O)[C@H](OC(C)=O)[C@@]2(C)O1 [Forskolin, forskolin] | 0.26 | −0.17 | 0.47 | 0.08 | 0.53 | 0.00 | 0.94 | 1.12 | 0.51 | 0.00 | 0.00 | −0.39 | 0.00 | 0.88 | 0.54 | −0.22 | 0.25 | 0.70 | 0.72 | 0.51 | logarithmic value of ratio of IC40 values [12, 22]: −0.47
